One series deals with SARS-CoV-2. Briefly: Inhibition of SARS-CoV-2 replication in Vero E6 cells (viral NP immunostaining, percent infection). The settings on record: for IC50: read-out: IC50 of inhibition of the replication of SARS-CoV-2, MOI 0.025, compound added 2 h before infection, 48 h incubation, NP immunostaining.
Another series relates to Vero E6 cells. The settings on record: uninfected VeroE6 cells, MTT assay, same compound dilutions as viral replication assay. (Tetrazolium assays rely on reduction of a dye to a coloured formazan, in cell work by metabolically active cells.)

Data on four compounds can be found in patent US12616671B2, “Use of rigosertib to treat RNA virus infections” (Icahn School of Medicine at Mount Sinai, priority 2020, dated 2026).

On to `CN1CCN(c2ccc(Nc3ncc4cc(C#N)c(=O)n(C5CCCC5)c4n3)cc2)CC1` [ON123300], for which the “effect on viral replication” value in the series on SARS-CoV-2 (SARS-CoV-2, negative control, data not shown) is on record as “no effect”.
In general, IC50 refers to the point on the concentration scale where inhibition reaches its midpoint. As to `CCC(CC)COC(=O)[C@H](C)N[P@](=O)(OC[C@H]1O[C@@](C#N)(c2ccc3c(N)ncnn23)[C@H](O)[C@@H]1O)Oc1ccccc1` [Remdesivir], in the series with SARS-CoV-2, the IC50 was determined as 826 nM.
Regarding `COc1cc(OC)c(/C=C/S(=O)(=O)Cc2ccc(OC)c(NCC(=O)O)c2)c(OC)c1` [Rigosertib], the “effect on the viability of Vero E6 cells” value in the series on Vero E6 cells was “little or no effect”. The “fold more effective than Remdesivir (SARS-CoV-2 replication IC50)” value in the series on SARS-CoV-2 (ratio of IC50 values versus Remdesivir) is “approximately 50 fold”. In addition, in the series with SARS-CoV-2, the IC50 turned out to be 16 nM.
Take `CCN(CCO)CCCC(C)Nc1ccnc2cc(Cl)ccc12` (stereo not drawn) [Hydroxy-Chloroquine]: the IC50 in the series on SARS-CoV-2 stood at 733 nM.
